Laboratory results as given in article PMC12474915 (Nature Communications, 2025).

Biological target: T1, MET1MTase (Arabidopsis thaliana, UniProt P34881)
T1 construct: gene DMT1; residues 621-1534 (lacks RFTS1-2; acidic linker, BAH1-2, MTase), GST tag cleaved by HRV3C, E. coli Rosetta2 (DE3)
T1 sequence (P34881 621-1534): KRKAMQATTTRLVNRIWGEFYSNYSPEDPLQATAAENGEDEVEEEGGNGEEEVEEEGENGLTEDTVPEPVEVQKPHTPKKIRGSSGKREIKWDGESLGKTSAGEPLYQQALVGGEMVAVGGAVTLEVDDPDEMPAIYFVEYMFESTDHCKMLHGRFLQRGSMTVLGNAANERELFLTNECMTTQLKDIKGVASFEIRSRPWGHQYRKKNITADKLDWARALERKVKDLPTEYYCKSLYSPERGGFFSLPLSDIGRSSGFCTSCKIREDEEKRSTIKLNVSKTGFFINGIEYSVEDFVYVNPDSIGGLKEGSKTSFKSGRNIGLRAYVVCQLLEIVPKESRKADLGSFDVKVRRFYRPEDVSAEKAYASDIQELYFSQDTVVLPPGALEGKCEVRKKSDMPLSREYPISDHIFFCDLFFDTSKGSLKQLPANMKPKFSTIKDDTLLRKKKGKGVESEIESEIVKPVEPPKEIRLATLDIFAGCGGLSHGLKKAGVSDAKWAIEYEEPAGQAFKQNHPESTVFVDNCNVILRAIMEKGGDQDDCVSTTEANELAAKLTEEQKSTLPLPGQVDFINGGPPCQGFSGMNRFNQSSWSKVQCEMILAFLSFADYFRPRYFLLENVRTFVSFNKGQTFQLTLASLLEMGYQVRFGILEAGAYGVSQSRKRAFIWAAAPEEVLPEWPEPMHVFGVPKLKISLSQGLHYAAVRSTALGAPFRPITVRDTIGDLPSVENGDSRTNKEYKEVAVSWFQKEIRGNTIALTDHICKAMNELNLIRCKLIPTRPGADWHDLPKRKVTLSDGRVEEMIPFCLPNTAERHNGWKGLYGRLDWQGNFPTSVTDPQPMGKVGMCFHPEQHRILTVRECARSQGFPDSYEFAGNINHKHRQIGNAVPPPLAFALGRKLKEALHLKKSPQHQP
Assay: cryo-EM structure
Type: binding
Details: ternary complex with 12 bp hemimethylated DNA (5-fluorocytosine covalently bound to Cys1198); formed from added SAM; 2.74 Å

Compound: Nc1ncnc2c1ncn2[C@@H]1O[C@H](CSCC[C@H](N)C(=O)O)[C@@H](O)[C@H]1O [SAH, S-adenosyl homocysteine]
- cryo-EM structure: catalytic core containing S-adenosyl homocysteine (SAH, a methyl donor cofactor product) binding site
